Common to all, as to format: in vivo, Guinea-Pigs
For assay [1], the system named is bronchospasms elicited by intravenous injections of serotonin. The experiment in a line: Konzett procedure: bronchodilator activity against serotonin-induced bronchospasm, i.v. Particulars: Cavia porcellus; guinea pig; spasmogen serotonin i.v.; three logarithmic cumulative intravenous doses. As to the method: (§1) The bronchodilator activity for representative compounds of this invention was determined in Guinea-Pigs against bronchospasms elicited by intravenous injections of serotonin, histamine, and acetylcholine, by the Konzett procedure the details of which are those discussed by J. Lulling, P Lievens, F. El Sayed and J. Prignot, Arzeimittel-Forschung 18, 995 (1968).
(§2) In the table which follows, bronchodilator activity for representative compounds of the invention against spasmogenic agents serotonin, histamine, and acetylcholine is expressed as an ED50 determined from the results obtained with three logarithmic cumulative intravenous doses.

The subject of assay [2] is bronchospasms elicited by intravenous injections of acetylcholine. The experiment in a line: Konzett procedure: bronchodilator activity against acetylcholine-induced bronchospasm, i.v. Particulars: Cavia porcellus; guinea pig; spasmogen acetylcholine i.v.; three logarithmic cumulative intravenous doses. As to the method:
as §1, §2

In assay [3] the test system is bronchospasms elicited by intravenous injections of histamine. The experiment in a line: Konzett procedure: bronchodilator activity against histamine-induced bronchospasm, i.v. Particulars: Cavia porcellus; guinea pig; spasmogen histamine i.v.; three logarithmic cumulative intravenous doses. As to the method:
as §1, §2

The term ED50 denotes the dose at which the effect has come halfway, by size or by number of responders. Regarding `C=CCCC(C)(O)C/C=C/[C@H]1[C@H](O)CC(=O)[C@@H]1C/C=C\CCCC(=O)O` (relative stereo) [dl-11α,16-DIHYDROXY-9-OXO-16-METHYL-5-cis-13-trans-Δ^19 PROSTATRIENOIC ACID], the 50% effective dose (ED50) in assay [1] was found to be 3.8 µg/kg; in assay [2], 0.0106 mg/kg; in assay [3], 6.4 µg/kg.

The values are drawn from patent US4237307A, “15-Deoxy-16-hydroxy-16-methyl-Δ19-prostaglandins of the E and F series” (American Cyanamid Company, priority 1979, dated 1980).
